According to patent US20210071180A1, “MICRORNA 584-5P COMPOSITIONS AND METHODS FOR TREATING CANCER” (BOARD OF REGENTS, THE UNIVERSY OF TEXAS SYSTEM, priority 2018, published 2021):

Key:
D458Med cells = assay: miRNA mimic library screen, CellTiter-Glo cell viability; assay type: cell-based; settings: screen of 1,902 miRNA mimics, VCR at IC20
Method: To identify miRNAs that may sensitize VCR response in MB, a high-throughput screening platform was combined with a library of 1,902 chemically synthesized human miRNA mimics. The miRNAs are arrayed in a one-miRNA-one-well format in 96-well microtiter plates. Reverse transfection of Group 3/c-Myc-amplified D458Med cells was performed in triplicate in the presence and absence of a sublethal dose of VCR, which was optimized in four MB cell lines before the screen (FIG. 2A). Cells were subjected to VCR at an IC20 lethal concentration for 72 hours after 48 hours of transfection, and cell viability was measured (FIG. 1A). Candidate miRNAs were prioritized for validation by functional and interaction assays using standard Student t-tests (with pooled variance), false discovery rate (Q=0.5%), and by using the magnitude of response (lowest 2.5 percentile of the distribution of the μVCR/μControl ratios).
miRNA mimic library screen. The primary screen was conducted using MI00200 MISSION microRNA Mimic v.17, in which miRNA mimics were arrayed in a one-miRNA-one-well format in 96-well microtiter plates. […] Cell viability was assessed using CellTiter-Glo (Promega, Madison, Wis., USA) according to the manufacturer's protocol. ath-miR-416 or cel-miR-243 was added as a negative control, whereas siRNA against PLK-1 was used as a positive control in each plate. […]

3′-UTR of HDAC1 = assay: Dual luciferase 3′-UTR reporter assay (HDAC1); assay type: cell-based; settings: miR-584-5p mimic in comparison with scrambled
Method: Dual luciferase assay. Wild-type or mutant 3′-UTR segments of the eIF4E3 and HDAC1 gene were cloned downstream of the luciferase gene in pGL3-promoter vector at the SacI and SpeI restriction sites. HEK293 cells were cotransfected with Renilla luciferase vector (pRLnull 380) and firefly luciferase vector containing pGL3-wt-eIF4E3; pGL3-mut-eIF4E3; or pGL3-wt-HDAC1, pGL3-mut-HDAC1, or pGL3 overnight and incubated in fresh complete medium for an additional 48 hours after transfection. Cells were then transfected with miRNA mimic (Invitrogen) for 24 hours. Next, cells were harvested with 1× passive lysis buffer (Promega) and luciferase activity was read using GLOMAX 20/20 luminometer (Promega).
Data are z-transformed. The cutoff criteria for each gene are fold change >2, sample intensity >10, and p-value <0.05. […] To validate the gene expression analysis and target prediction results, it was determined whether miR-584-5p reduced HDAC1/eIF4E3 expression by binding to their 3′-untranslated regions (3′-UTRs). […] Also shown are the portion of the miR-584-5p sequence (SEQ ID NO: 15; UAUGGUU) that binds to the wild-type 3′UTR and seed sequence mutant (SEQ ID NO: 16; […], top panel; and SEQ ID NO: 17; […]; bottom panel). Also shown is miR-584-5p seed sequence mutated sequences. […] The p-values were calculated using standard Student t-tests. […] The p-values were calculated using standard Student t-tests.

U20S-DR-GFP cells = assay: ISceI-based DR-GFP reporter assay of homologous recombination; assay type: cell-based; settings: cells stably expressing DR-GFP reporter, FACS
Method: Bar graphs next to images show average number of 53BP1 foci/cell. The p-values were determined by two-way ANOVA followed by Sidak's multiple-comparisons test. Error bars represent mean±SEM. Because miR-584-5p induces apoptosis, it was reasoned that DNA strand breaks induced by miR-584-5p and eIF4E3/HDAC1 silencing may not be properly repaired. To confirm those findings, a functional assay was performed to monitor homologous recombination (HR) because HR-dependent events repair IR-induced double-strand breaks in G2 phase. The ISceI-based DR-GFP reporter assay, which measures the frequency of double-strand break repair by HR (Gunn, A., Bennardo, N., Cheng, A. & Stark, J. M. Journal of Biological Chemistry 286, 42470-42482, (2011); Pierce, A. J., Johnson, R. D., Thompson, L. H. & Jasin, M. Genes & Development 13, 2633-2638, (1999); and Stark, J. M., Pierce, A. J., Oh, J., Pastink, A. & Jasin, M. Molecular and Cellular Biology 24, 9305-9316, (2004)), was used. […] U20S-DR-GFP cells were transfected with miR-NC or miR-584-5p or scramble-siRNA or eIF4E3/HDAC1-siRNAs followed by transfection with pCAGGS vector with ISceI/GFP. I-SceI expression leads to double-strand breaks that HR repairs by using the wild-type GFP, resulting in GFP^+ cells. […] The p-values were calculated using either Student t-tests (mimic) or one-way ANOVA followed by Dunnett's multiple-comparisons test (siRNAs). […]

eIF4E1 = assay: Western blot analysis of eIF4E1; assay type: cell-based; settings: MB cells
Method: Next, it was determined whether miR-584-5p and its target genes, eIF4E3 and HDAC1, show reciprocal expression pattern in MB. […] In FIG. 16A, data represent Log 2 ratio tumor/cerebellum control. Data mined from GSE42657. In FIG. 16B, data represent Log 2 ratio tumor/cerebellum control. Data mined from GSE28245. To further confirm those results, miR-584-5p expression in MB patient-derived xenografts was examined. […] The p-values were calculated using one-way ANOVA followed by Sidak's multiple-comparisons test. Error bars represent mean±SEM. To further confirm the specificity of miR-584-5p-eIF4E3 signaling axis in MB, the expression of eIF4E1, which acts as an oncogene in several cancers (Bhat, M. et al. Nat Rev Drug Discov 14, 261-278, (2015)), was tested in miR-584-5p treated cells.

normal neural stem cell = assay: Normal neural stem cell growth; assay type: cell-based
[1] = system: DAOY cells stably expressing green fluorescent protein (GFP)-luciferase; assay: Orthotopic intracranial tumor xenograft, bioluminescence imaging and survival
Method: For in vivo studies, orthotopic intracranial transplantation of the scrambled and miR-584-5p-transfected DAOY cells stably expressing green fluorescent protein (GFP)-luciferase was performed. […] The p-values were determined by the sum-of-squares F test. Error bars represent mean±SEM. […] The p-value was determined using the log-rank (Mantel-Cox) test. Error bars represent SE. ****, p<0.0001; ***, p<0.001.
Animals and intracranial xenografts. Athymic nude mice (nu/nu) were obtained from Harlan, USA. Three- to 5-week-old athymic nude mice (nu/nu) were anesthetized using isoflurane by inhalation. Using a Hamilton syringe, 1 million cells were stereotactically implanted into the right corpus striatum at a depth of 3.5 mm at a point 2.5 mm lateral to the midline and 1.5 mm anterior to the bregma. After the surgery, the animal recovered on a heating pad in a normal mouse cage to maintain its body temperature at 37°-37.2° C. An ocular lubricating ointment (AKORN) was administered until spontaneous blinking resumed. Starting from week 2, control group animals received dimethyl sulfoxide, whereas VCR group animals received 1 mg of VCR (Sigma-Aldrich) per kg of body weight intraperitoneally once per week for 6 weeks. The Xenogen Small-Animal Imaging System was used for subcellular imaging in live mice once per week. Animals were killed, and brains were fixed and analyzed.

Substance: miR-584-5p: microRNA mimic; nucleotide sequence UUAUGGUUUGCCUGGGACUGAG (SEQ ID NO: 1); purchased from Thermofisher (chemistry not given here)
- difference in cell viability in VCR-treated MB cells in comparison with untreated cells (D458Med cells): highest magnitude of difference in cell viability
- luciferase activity, HDAC1 3′-UTR with mutated miR-584-5p binding sites (3′-UTR of HDAC1): no change in luciferase activity
- luciferase activity, wild-type HDAC1 3′-UTR construct (3′-UTR of HDAC1): significantly reduced
- GFP-positive cells (homologous recombination events) (U20S-DR-GFP cells): significantly fewer GFP-positive cells
- eIF4E1 levels (eIF4E1): did not show any change
- normal neural stem cell growth (normal neural stem cell): without affecting normal neural stem cell growth
- MB tumor growth ([1]; transfected DAOY cells, in comparison with scrambled-transfectant tumor): dramatically reduced MB growth
- survival of mice ([1]; vs scrambled-transfectant group, Kaplan-Meier): lived significantly longer
